Values joined by “and” are separate entries in the source; they are usually repeats but may differ in a detail not shown here. Equal entries are not always repeated. Where two headings read alike, the source gives them in different places.
How the values were obtained:
MM.1S cells = assay: Inhibition of MM cell proliferation, [3H]-thymidine uptake, MM.1S; assay type: cell-based; conditions: for IC50: Homo sapiens, MM1.S
Protocol: (§1) The uptake of [^3H]-thymidine by different MM cell lines (MM.1S, Hs Sultan, U266 and RPMI-8226) was measured as an indicator of the cell proliferation.
(§2) Uptake [^3H]-thymidine by different MM cell lines (MM.1S, Hs Sultan, U266 and RPMI-8226) was measured as an indicator of cell proliferation. Cells were incubated in the presence of compounds for 48 hours; [^3H]-thymidine was included for the last 8 hours of the incubation period.

Hs Sultan cells = assay: Inhibition of MM cell proliferation, [3H]-thymidine uptake, Hs Sultan; assay type: cell-based
Protocol: as §1, §2

[1] = Pharmacokinetics of Actimid in relapsed/refractory multiple myeloma patients; assay type: in vivo, human
Protocol: 6.5.1 Treatment of Relapsed Multiple Myeloma p 4-(Amino)-2-(2,6-dioxo(3-piperidyl))-isoindoline-1,3-dione (Actimid™) was administered to patients with relapsed/refractory multiple myeloma. The study was conducted in compliance with Good Clinical Practices. Patients were at least 18 years old, had been diagnosed with multiple myeloma (with paraprotein in serum and/or urine), and were considered refractory to treatment after at least two cycles of treatment, or have relapsed after two cycles of treatment.
Patients who have progressive disease, according to the Southwest Oncology Group (SWOG) criteria, on their prior regimen are considered treatment refractory. Relapse following remission is defined as >25% increase in M component from baseline levels; reappearance of the M paraprotein that had previously disappeared; or a definite increase in the size and number of lytic bone lesions recognized on radiographs. Patients may have had prior therapy with thalidomide, provided they were able to tolerate the treatment. A Zubrod performance status of 0 to 2 is required for all patients.
4-(Amino)-2-(2,6-dioxo(3-piperidyl))-isoindoline-1,3-dione is administered to patients at doses of 1, 2, 5, or 10 mg/day for up to four weeks; at each dose level, three patients are initially enrolled. Dosing occurs at approximately the same time each morning; all doses are administered in the fasted state (no eating for at least two hours prior to dosing and two hours after dosing). 4-(Amino)-2-(2,6-dioxo(3-piperidyl))-isoindoline-1,3-dione doses are administered in an ascending fashion such that patients in the first cohort receive the lowest dose of 4-(amino)-2-(2,6-dioxo(3-piperidyl))-isoindoline-1,3-dione (1 mg/day) and escalation to the next higher dose level occurs only following the establishment of safety and tolerability at the current dose. If one out of three patients at any dose level experience dose limiting toxicity (DLT), three additional patients are enrolled at that dose. If none of the three additional patients experience DLT, escalation to the next dose level occurs; dose escalations continue in a similar fashion until the MTD is established or the maximum daily dose (10 mg/day) is attained. However, if one of the three additional patients enrolled experiences DLT, the MTD has been reached. If two or more of the three additional patients enrolled experience DLT, the MTD is judged to have been exceeded and three additional patients are enrolled at the preceding dose level to confirm the MTD. Once the MTD has been identified, four additional patients are enrolled at that dose level so that a total of 10 patients is treated at the MTD.
Blood sampling for analysis of pharmacokinetic parameters is performed on Days 1 and 28 according to the following sampling schedule: pre-dose, 0.25, 0.5, 0.75, 1, 1.5, 2, 2.5, 3, 4, 6, 8, 10, 12, 18, and 24 hours post-dose. An additional blood sample is collected at each weekly visit for the determination of 4-(amino)-2-(2,6-dioxo(3-piperidyl))-isoindoline-1,3-dione levels. Total urine collections are also made with urine pooled according to the following time intervals post-dose: 0 to 4, 4 to 8, 8 to 12, and 12 to 24 hours. Safety assessments are made by monitoring adverse events, vital signs, ECGs, clinical laboratory evaluations (blood chemistry, hematology, lymphocyte phenotyping, and urinalysis), and physical examination at specific times during the study.

TNF-α production [2] = conditions: human PBMC, cited from earlier work; for IC50: LPS, read-out: IC50 for inhibiting production of TNF-α following LPS-stimulation of PBMC
TNF-α production [3] = conditions: cited from earlier work; for IC50: human whole blood, LPS, read-out: IC50 for inhibiting production of TNF-α following LPS-stimulation of human whole blood
TNF-α production [4] = assay: Inhibition of TNF-α production following LPS-stimulation of human PBMC; assay type: cell-based
T-cells = assay: Stimulation of T-cell proliferation following primary induction by T-cell receptor (TCR) activation; assay type: cell-based
IL-2 = assay: Augmentation of IL-2 production following TCR activation of PBMC; assay type: cell-based
IFN-γ = assay: Augmentation of IFN-γ production following TCR activation of T-cells; assay type: cell-based
[5] = LPS-stimulated production of IL-113 by PBMC; assay type: cell-based
IL-6 = assay: LPS-stimulated production of IL-6 by PBMC; assay type: cell-based
IL-10 = assay: LPS-stimulated production of IL-10 by PBMC; assay type: cell-based
[6] = Cardiovascular and respiratory function in anesthetized dogs; assay type: in vivo, Beagle dogs
Excerpt: Two groups of Beagle dogs (2/sex/group) are used.

[7] = Phase 1 studies in refractory or relapsed multiple myeloma patients: pharmacokinetics; assay type: in vivo
Protocol: (§3) Patients started 3-(4-amino-1-oxo-1,3-dihydro-isoindol-2-yl) -piperidine -2,6-dione treatment at 5 mg/day with subsequent escalation to 10, 25, and 50 mg/day. […] Patients were evaluated for adverse events at each visit and the severity of these events was graded according to the National Cancer Institute (NCI) Common Toxicity Criteria. Patients were discontinued if they experienced DLT (Grade 3 or greater non-hematological, or Grade 4 hematological toxicity).
Blood and urine samples were collected for analysis of pharmacokinetic parameters on Days 1 and 28. Blood samples were collected according to the following sampling schedule: pre-dose, 0.25, 0.5, 0.75, 1, 1.5, 2, 2.5, 3, 4, 6, 8, 10, 12, 18, and 24 hours post-dose. In addition, a blood sample was collected at each weekly clinic visit for 3-(4-amino-1-oxo-1,3-dihydro-isoindol-2-yl)-piperidine-2,6-dione determination. Total urine was collected and pooled according to the following time intervals post-dose: 0 to 4, 4 to 8, 8 to 12, and 12 to 24 hours. […] Bone marrow aspirations and/or tissue biopsy are also performed at Months 3, 6 and 12 if a patient's paraprotein serum concentration or 24-hour urine protein excretion declined to the next lower level, based on best response criteria.

[8] = Phase 1 studies in refractory or relapsed multiple myeloma patients: dose limiting toxicity; assay type: in vivo
Protocol: as §3
The second cohort of 3 patients subsequently commenced therapy at 10 mg/day.

[9] = Phase 1 study in patients with solid tumors: dose limiting toxicity; assay type: in vivo; conditions: initial group of 20 patients with solid tumors, 5 escalated to 50 mg/day over 4 weeks
Protocol: Patients who, experienced clinical benefit were permitted to continue on treatment as Named Patients.
The study initially enrolled 20 patients and was subsequently amended to enroll 16 additional patients (adrenal carcinoma, NSCLC, malignant mesothelioma, breast cancer, metastatic melanoma (8), renal cell cancer (4)) at a higher dose. The 16 additional patients were given weekly escalating doses of 25 mg/day, 50 mg/day, 75 mg/day, 100 mg/day, 125 mg/day, and 150 mg/day over a 6-week period with continuing treatment for an additional six weeks.
The study design dictates that at least 3 patients must be enrolled at a dose level and have completed 28 days of treatment prior to enrollment of patients at the next higher dose level. […] Patients will be escalated to 10, 20, 25, and 30 mg/day provided there is no toxicity.
If, at any given dose level in either study, one out of three patients experiences toxicity, three additional patients must be treated at that particular dose. If, however, two out of six patients experience DLT, the MTD is judged to have been exceeded. No further dose escalations are to occur and additional patients are to be enrolled at the previous dose level. The dose of 3-(4-amino-l-oxo-1,3-dihydro-isoindol-2-yl)-piperidine-2,6-dione administered is escalated until the MTD is achieved or the maximum daily dose […] is reached.

metastatic melanoma = assay: Treatment of metastatic melanoma patients; assay type: in vivo, human
Protocol: The dose was then increased every seven days to 10 mg/day, 25 mg/day, and 50 mg/day, respectively, for a total of four weeks on therapy.

## Nc1cccc2c1C(=O)N(C1CCC(=O)NC1=O)C2=O (centres unmarked) [Actimid, 4-(Amino)-2-(2,6-dioxo(3-piperidyl))-isoindoline-1,3-dione]
MM.1S cells; read-out: concentration achieving 50% inhibition of proliferation, MM.IS cells
  IC50: 0.00273 µg/mL to 0.0273 µg/mL and 10 nM to 100 nM
Hs Sultan cells; read-out: concentration achieving 50% inhibition of proliferation
  IC50: 0.00273 µg/mL to 0.0273 µg/mL and 10 nM to 100 nM
[1]; Day 1
  fold increase in AUC(01) with a 5-fold increase in dose: 3.6 fold
  fold increase in Cmax with a five-fold higher dose: 3.2 fold
[1]; Week 4
  fold increase in AUC(01) with a 5-fold increase in dose: 2.3 fold
  fold increase in Cmax with a five-fold higher dose: 2.2 fold
[1]; all dose levels, relapsed multiple myeloma patients
  absorption: steadily absorbed
[1]; human, in vivo
  decline of plasma concentrations after reaching Cmax: monophasic manner
  median Tmax: 3 to 4 h
[1]; human, in vivo, 1 mg
  CL/F: 114.75 mL/min
[1]; human, in vivo, 2 mg
  CL/F: 121.43 mL/min
[1]; human, in vivo, 5 mg
  CL/F: 182.31 mL/min
  t½: 6.5 h
TNF-α production [2]
  IC50: ~24 nM
  IC50 for inhibiting production of TNF-α following LPS-stimulation of PBMC: 0.00655 µg/mL
TNF-α production [3]
  IC50 for inhibiting production of TNF-α following LPS-stimulation of human whole blood: 0.00683 µg/mL
  IC50: ~25 nM

## O=C1CCC(N2C(=O)c3ccccc3C2=O)C(=O)N1 (centres unmarked) [thalidomide, reference compound]
MM.1S cells; MM.1S cells, concentrations up to 100 μm, 48 hours
  inhibition of cell proliferation: 15%
Hs Sultan cells; concentrations up to 100 μm, 48 hours
  inhibition of cell proliferation: 20%
TNF-α production [2]
  IC50: ~194000 nM
  IC50 for inhibiting production of TNF-α following LPS-stimulation of PBMC: 50.2 µg/mL

## Nc1cccc2c1CN(C1CCC(=O)NC1=O)C2=O (centres unmarked) [3-(4-amino-1-oxo-1,3-dihydro-isoindol-2-yl)-piperidine-2,6-dione]
TNF-α production [4]
  LPS-stimulated production of TNF-α by PBMC: dose-dependent inhibition
MM.1S cells; read-out: concentration resulting in 50% inhibition of cell proliferation, MM.1S cells, 48 hours, [3H]-thymidine last 8 hours
  IC50: 400 nM
Hs Sultan cells; read-out: concentration resulting in 50% inhibition of cell proliferation, 48 hours, [3H]-thymidine last 8 hours
  IC50: 1000 nM
T-cells
  times more potent than thalidomide in stimulating the proliferation of T-cells: 50-100 times
IL-2
  times more potent than thalidomide in augmenting the production of IL-2: 50-100 times
IFN-γ
  times more potent than thalidomide in augmenting the production of IFN-γ: 50-100 times
[5]
  LPS-stimulated production of IL-113 by PBMC: dose-dependent inhibition
IL-6
  LPS-stimulated production of IL-6 by PBMC: dose-dependent inhibition
IL-10
  production of the anti-inflammatory cytokine IL-10: increased production
[6]; anesthetized Beagle dogs, all doses (2, 10, and 20 mg/kg), infusion through the jugular vein
  cardiovascular and respiratory changes compared to the vehicle control group: minimal
[6]; anesthetized dogs, higher doses (10, 20 mg/kg)
  increase in arterial blood pressure at higher doses: not seen at higher doses
[6]; anesthetized dogs, low dose
  duration of the increase in arterial blood pressure: approximately 15 minutes
[6]; anesthetized dogs, low dose (2 mg/kg), infusion
  arterial blood pressure after small increase (from 94 mmHg): 101 mmHg
[6]; anesthetized dogs, common to control and treated groups
  deviations in femoral blood flow, respiratory parameters, and Qtc interval: not considered treatment-related
[7]; human, in vivo
  accumulation with multiple dosing: no evidence of accumulation
  half-live in patients, mean: 8 h
  half-live in patients, range: up to 17 hours
  plasma concentration profile: double peaks were observed
[7]; multiple myeloma patients
  clearance compared to healthy volunteers: lower
  exposure (Cmax and AUC) compared to healthy male volunteers: slightly higher
[8]; 5 mg/day for 28 days, first cohort of 3 patients
  dose limiting toxicity (DLT): without any dose limiting toxicity
[8]; 10 mg/day, second cohort of 3 patients
  tolerability: tolerated treatment well
[9]
  DLTs: No DLTs were reported
Metastatic melanoma; first four weeks of treatment, 5 escalated weekly to 10, 25, 50 mg/day
  patients showing disease stabilization or a partial response: Five of the 13
Metastatic melanoma; metastatic melanoma patients
  duration of response: approximately six
  tumor response in cutaneous and subcutaneous lesions: five
  tumor response in liver: one
  tumor response in lymph nodes: two
TNF-α production [2]
  IC50: ~100 nM
  IC50 for inhibiting production of TNF-α following LPS-stimulation of PBMC: 0.0259 µg/mL
TNF-α production [3]
  IC50 for inhibiting production of TNF-α following LPS-stimulation of human whole blood: 0.1036 µg/mL
  IC50: ~480 nM

From patent publication US20110275672A1, “METHODS FOR TREATING CANCERS USING POLYMORPHIC FORMS OF 3-(4-AMINO-1-OXO-1,3 DIHYDRO-ISOINDOL-2-YL)-PIPERIDINE-2,6-DIONE” (Celgene Corporation, priority 2003, published 2011)
